According to patent US20050245510A1 (Boehringer Ingelheim Vetmedica GmbH, priority 2004, published 2005):

Tests used:
[1] = tested on: E. coli endotoxin 026:B6 lipopolysaccharide induced mastitis in lactating cows; format: in vivo
Procedure: A blinded in-vivo study with a parallel group design was conducted in 2003. The study was conducted according to Good Laboratory Practices.
The animals were clinically examined before endotoxin-challenge and at 2 h (before treatment), 4 h, 6 h, 8 h, 10 h, 24 h, 34 h, 48 h, 72 h, 7 days, and 14 days after endotoxin-challenge.
The size of the challenged udder quarter was documented using the following score: • 0 Normal • 1 Slight increase up to 20% • 2 20-50% increase • 3 More than 50% increase
Ruminal contractions during a 2 minutes period were examined by auscultation in the left paralumbar fossa. In painful conditions of any kind, the frequency of ruminal contractions in ruminants tends to decrease.
Milk samples for analysis of thromboxane B2 (TBX)—a relevant mediator of inflammation—were taken from the endotoxin-challenged quarter before endotoxin challenge and at 2 h (before treatment), 4 h, 6 h, 8 h, 10 h, and 24 h after endotoxin-challenge.
Milk somatic cell count (SCC) was measured before endotoxin-challenge and at 10 h, 24 h, 34 h, 48 h, 72 h, 7 days, and 14 days after challenge.

mastitis cases = settings: infused intramammarily in special vehicle together with amoxicillin/clavulanic acid; cited from earlier work

Compound	ruminal contractions in 2 min, mean ± S.D. ([1]; 30 mg meloxicam per quarter, at 24 h after challenge)	size of challenged udder quarter, mean score ± S.D. ([1]; 30 mg meloxicam per quarter, intramammary 2 h after challenge, at 10 h after challenge)	standardised difference of udder size score versus untreated ([1]; 30 mg meloxicam, 10 h, difference in means divided by larger S.D. (untreated group))	standardised difference of ruminal contractions versus untreated ([1]; 30 mg meloxicam, 24 h, calculated with larger S.D. (untreated group))	local and systemic tolerance ([1]; intramammary, dose range 10-50 mg per affected udder quarter)	effect on pain perception (mastitis cases)
Cc1cnc(NC(=O)C2=C(O)c3ccccc3S(=O)(=O)N2C)s1 [meloxicam]	3.4±0.55	1.2±0.44 score (0-3)	1.2	0.9	good	
Cc1c(Nc2ncccc2C(=O)O)cccc1C(F)(F)F [flunixin, flunixin meglumine]						no beneficial effect on pain perception
